Assay: Stability of the active compound in aqueous solution
Assay type: physicochemical
Conditions: hydrolyses
From the text: The development of this active compound in intensive medicine requires that it is available in parenterally administrable form, best as aqueous solution.

Cc1cc(S(C)(=O)=O)c(S(C)(=O)=O)cc1C(=O)NC(=N)N [N-diaminomethylene-2-methyl-4,5-di(methylsulfonyl)benzamide]
stability in aqueous solution: not stable in aqueous solution
